From patent US20150344426A1, “COMPOUNDS AND THERAPEUTIC USES THEREOF” (ALZHEIMER'S INSTITUTE OF AMERICA, INC., priority 2012, published 2015)
Several values for one entry are separate records, joined by “and”; a condition that tells them apart may be missing. Identical values can stand only once.

Experiments:
[1] = Stability in mouse plasma; assay type: in vitro ADME; conditions: read-out: Mouse Plasma t1/2
Protocol: Relative stability of Example Compound Nos. 1 through 60 in mouse plasma and mouse liver microsomal preparations.
Certain Example Compounds were each added to a final concentration of 1 μM to 1 mL of each of mouse plasma and mouse liver microsomal preparations (with and without 1 mM NADPH). Stability assays were run in duplicate and were sampled at 0, 5, 15, 30, 60 and 120 minutes as follows: one hundred microliter aliquots of samples were removed at the specified sampling times, and the reaction was quenched with 400 μL of acetonitrile.
Samples were analyzed by HPLC-ESI-MS/MS by measuring the peak area of both the starting Example Compound and parent compound (i.e., either Parent Compound A or Parent Compound B) that were created by removal of the Prodrug Moiety (as defined in Section 6 herein).

[2] = Experiment 1: hepatic portal vein samples of rats after oral Example Compound 35; assay type: in vivo, female Sprague-Dawley rats
Source text: It is believed that Example Compound 35 metabolizes in vivo into Parent Compound A (i.e., it is believed that Example Compound 35 is a prodrug of Parent Compound A). The objective of this study was to determine the concentration of Example Compound 35 and Parent Compound A in hepatic portal vein samples of female Sprague-Dawley rats following oral administration of only Example Compound 35, and to quantify the extent of transport into hepatic portal circulation, if any, of Example Compound 35. A second objective was to determine the relative bioavailability of Parent Compound A in the portal vein following oral administration of Example Compound 35.
Experiment 1. Three female Sprague Dawley rats (200-215 g, Harlan Laboratories, Indianapolis, Ind.) with cannulae implanted surgically in the portal vein for blood sampling were used in this study. Example Compound 35, formulated in 50 mM Glycine pH 3.0 with 0.5% HPMC and 0.05% Tween-80, was administered by oral gavage (PO) at a dose of 20 mg/kg in a volume of 2 mL/kg. This dose is the molar equivalent of a 13.5 mg/kg dose of Parent Compound A. Portal blood samples were collected through the portal vein cannula from each animal at 0.25, 0.5, 1, 2, 4, and 8 hours following administration of compound. Samples were split into two fractions and one was supplemented with citrate buffer (final concentration 100 mM, pH 3.0) to stabilize Example Compound 35 and stop conversion of Example Compound 35 to Parent Compound A ex vivo during analysis. Samples were then processed to generate plasma and analyzed for Example Compound 35 by LC-MS/MS. Plasma derived from the second aliquot of blood was analyzed for Parent Compound A.
Pharmacokinetic parameters estimated for Parent Compound A included the maximum observed drug concentration (Cmax), time of maximum observed drug concentration (Tmax), apparent terminal half-life (t1/2), area under the concentration-time curve from time zero to 8 hours postdose (AUC(0-8)), and area under the concentration-time curve extrapolated to infinity (AUC(0-inf)). The bioavailability (% F) of Parent Compound A in portal vein samples relative to IV administration was also estimated.
Plasma samples were analyzed for Example Compound 35 or Parent Compound A concentration using a LC-MS/MS method. All sample runs met standard acceptance criteria for discovery purposes, and were based on a standard curve containing at least 7 points. At least half of quality control samples at each of the three concentrations tested, and two thirds of the entire quality control sample pool, were within 15% of their theoretical value. The r^2 value for each standard curve was ≧0.99. The quantitation range for the Example Compound 35 and Parent Compound A assays was 1 to 100 ng/mL and 5 to 2,500 ng/mL, respectively, using a 0.05 mL sample volume.
The data were entered into the PK software package WinNonlin® version 5.1.1. A complete data check was conducted to verify the accuracy of data entry.
Pharmacokinetic parameters were estimated on median plasma concentrations using extravascular input (PO). Nominal collection times after administration of compound were used for PK analyses. The use of a non-compartmental model provided an adequate fit of the data. Pharmacokinetic parameters estimated for Parent Compound A included the maximum observed drug concentration (Cmax), time of maximum observed drug concentration (Tmax), apparent terminal half-life (t1/2), apparent volume of distribution (Vz obs), apparent clearance (C1 obs), area under the concentration-time curve from time zero to 8 hours postdose of Example Compound 35 […], and area under the concentration-time curve extrapolated to infinity (AUC(0-inf)). Example Compound 35 was detected in only one 0.25 hour hepatic portal vein sample at 1.29 ng/mL. Any Example Compound 35 present in all of the other samples was below the quantitation limit of 1 ng/mL and pharmacokinetic parameters were not determined for those samples. […]

[3] = Stability assessment / semi-quantitative hygroscopicity in a relative humidity (RH) chamber; assay type: physicochemical; conditions: solid in RH chamber; morphology and parent:prodrug composition
Protocol: “ND” in Table 2 refers to “No Data”. Purity was determined by HPLC. Melting point was determined by differential scanning calorimetry (“DSC”), and semi-quantitative hygroscopicity was determined in a relative humidity (“RH”) chamber.

[4] = tested on: HT1080 human fibrosarcoma cancer cells; experiment: Anti-tumor activity in HT1080 human fibrosarcoma xenograft with twice daily dosing; assay type: in vivo; conditions: for MTV increase / tumor growth inhibition relative to vehicle: 6 mg/kg twice daily for 8 days; for MTV decrease / tumor regression: 12 mg/kg twice daily for 8 days
Method in brief: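 Female nude mice (Crl:NU-Fox1^nu) bearing s.c. flank tumors from 1 million HT1080 cells, randomized into cohorts of ten at median tumor volumes about 82–209 mm^3. Dosing twice daily for 7 days; tumor volumes and body weights tracked from Day 1 to Days 15–22.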

[5] = female rats, orally at 20 mg/kg

With `O=C(NCc1ccc[n+](COC(=O)c2ccccc2)c1)Nc1ccc(OCCc2ccccc2-c2ccccc2)cc1` [Example 35, 1-[(Benzoyloxy)methyl]-3-{[({4-[2-(biphenyl-2-yl)ethoxy]phenyl}carbamoyl)amino]methyl} pyridinium] the half-life at 1 µM [1] was 1.29 h, the “Conversion to Parent Compound A following oral administration” value [2, 5] was “rapidly converted” and the “Transport of Example Compound 35 into the hepatic portal vein” value [2, 5] was “not significantly transported”. For the same compound, the concentration at 1 h ([2]; female, Sprague-Dawley, rat, plasma (hepatic portal vein), po, 20 mg/kg, portal vein, 1 hr after oral Example Compound 35 20 mg/kg, individual rats, * = below the quantitation limit of 1 ng/mL, read-out: [Ex. Cmp. 35]) was 0.24 ng/mL, the concentration at 2 h ([2]; female, Sprague-Dawley, rat, plasma (hepatic portal vein), po, 20 mg/kg, portal vein, 2 hr after oral Example Compound 35 20 mg/kg, individual rats, * = below the quantitation limit of 1 ng/mL, read-out: [Ex. Cmp. 35]) was 0.15 ng/mL and the concentration at 4 h ([2]; female, Sprague-Dawley, rat, plasma (hepatic portal vein), po, 20 mg/kg, portal vein, 4 hr after oral Example Compound 35 20 mg/kg, individual rats, * = below the quantitation limit of 1 ng/mL, read-out: [Ex. Cmp. 35]) was 0.13 ng/mL. The “Example Compound 35 present in all of the other portal vein samples” value ([2]; oral 20 mg/kg, all samples other than one 0.25 hour sample, quantitation limit) was < 1 ng/mL, the “[Ex. Cmp. 35]” value ([2]; portal vein, 0.25 hr after oral Example Compound 35 20 mg/kg, individual rats, * = below the quantitation limit of 1 ng/mL, 20 mg/kg) was 1.29 ng/mL and the “[Ex. Cmp. 35]” value ([2]; portal vein, 0.25 hr after oral Example Compound 35 20 mg/kg, individual rats, * = below the quantitation limit of 1 ng/mL, listed as Ex. Cmp. 35, 20 mg/kg) was 0.38* ng/mL and 1.3 ng/mL and 0.75* ng/mL. The “[Ex. Cmp. 35]” value ([2]; portal vein, 0.5 hr after oral Example Compound 35 20 mg/kg, individual rats, * = below the quantitation limit of 1 ng/mL, listed as Ex. Cmp. 35, 20 mg/kg) was 0.8* ng/mL and 0.32* ng/mL and 0.4* ng/mL, the “[Ex. Cmp. 35]” value ([2]; portal vein, 1 hr after oral Example Compound 35 20 mg/kg, individual rats, * = below the quantitation limit of 1 ng/mL, listed as Ex. Cmp. 35, 20 mg/kg) was 0.38* ng/mL and 0.29* ng/mL and the “[Ex. Cmp. 35]” value ([2]; portal vein, 2 hr after oral Example Compound 35 20 mg/kg, individual rats, * = below the quantitation limit of 1 ng/mL, listed as Ex. Cmp. 35, 20 mg/kg) was 0.3* ng/mL and No Peak. For the same compound, the “[Ex. Cmp. 35]” value ([2]; portal vein, 4 hr after oral Example Compound 35 20 mg/kg, individual rats, * = below the quantitation limit of 1 ng/mL, listed as Ex. Cmp. 35, 20 mg/kg) was “No Peak and 0.13* ng/mL”, the “[Ex. Cmp. 35]” value ([2]; portal vein, 8 hr after oral Example Compound 35 20 mg/kg, individual rats, * = below the quantitation limit of 1 ng/mL, listed as Ex. Cmp. 35, 20 mg/kg) was “No Peak and 0.16* ng/mL and 0.07* ng/mL” and the “Stability at 40° C. and 75% RH” value [3] was “No change in morphology stopped at 13 days, only prodrug observed”. For the same compound, the “Stability at 60° C. and 75% RH” value [3] was “Deliquesced at 7 days, approx 30:70 parent to prodrug observed”, the MTV increase ([4]; Day 9) was 31% and the “tumor growth inhibition relative to vehicle” value ([4]; Day 9) was 87%. For the same compound, the MTV increase ([4]; Day 21) was 2245%, the “tumor growth inhibition relative to vehicle” value ([4]; Day 21) was 78% and the MTV decrease ([4]; Day 9) was 81%. It also gave a tumor regression ([4]; Day 9) of 80%, an MTV decrease ([4]; Day 21) of 33% and a tumor regression ([4]; Day 21) of 33%. For the same compound, the “animals with no detectable tumors by the end of the study” value ([4]; Example Compound 35 study, 12 mg/kg, cohort of ten) was “Four”, the animals euthanized ([4]; Example Compound 35 study, 6 and 12 mg/kg) was “No animals” and the “anti-tumor activity in the HT1080 xenograft model (summary statement)” value ([4]; administered orally, twice daily, all doses tested) was “significant anti-tumor activity”. The “maximal reduction in median body weight” value ([4]; over the course of the study, all doses tested, orally twice daily) was < 15 % of the initial weight and the Tolerability ([4]; xenograft mice, all doses tested, orally twice daily) was “well tolerated”.
